A short description of data set [1]: in vivo. The settings on record: Sprague-Dawley, rat, po, 10 mg/kg.
Data set [2] is described as follows: in vivo. As to conditions: Sprague-Dawley, rat, po, 10 mg/kg. This is another data set of the same source.
The nature of data set [3]: in vivo. The settings on record: Sprague-Dawley, rat, brain/plasma, po, 10 mg/kg.

`CCc1cccc2c1C[C@@H]1CNCCN1C2=O`: in the data set “in vivo [1]”, the Cmax was 3.62 µM. In “in vivo [2]”, this compound yielded an AUC(0-t) at 4 h of 9.64 µM·h. The same compound registered a Kp in “in vivo [3]” of 3.9.

A word on the Cmax: it is the highest concentration seen after dosing. Usually AUC(0-t) stands for the area under the concentration-time curve up to a stated or last time point. A lower AUC(0-t) goes with low exposure. As usually defined, the Kp is the ratio of the level in a tissue or fluid to that in plasma or blood.

The values are drawn from ChEMBL document CHEMBL2396562, “Synthesis and SAR of potent and selective tetrahydropyrazinoisoquinolinone 5-HT(2C) receptor agonists” (Bioorg Med Chem Lett, 2013).
